Laboratory results taken from patent publication EP1149072B1, “SULFONAMIDE HYDROXAMATES” (F. HOFFMANN-LA ROCHE AG, priority 1998, dated 2000).

What was measured:
Format in all cases: biochemical
[1] = biological target: T1, Procollagen C-Proteinase (PCP) (Homo sapiens, UniProt P13497); test: Inhibition of Procollagen C-Proteinase activity, Assay A (continuous fluorescence assay, synthetic peptide substrate); conditions: Assay A from Ex. 21; 20 µM substrate, pH 7.5, 30°C
T1 construct: made in house; enzyme purified from culture fluid
T1 sequence (P13497 121-730 isoform P13497-2 limits assumed): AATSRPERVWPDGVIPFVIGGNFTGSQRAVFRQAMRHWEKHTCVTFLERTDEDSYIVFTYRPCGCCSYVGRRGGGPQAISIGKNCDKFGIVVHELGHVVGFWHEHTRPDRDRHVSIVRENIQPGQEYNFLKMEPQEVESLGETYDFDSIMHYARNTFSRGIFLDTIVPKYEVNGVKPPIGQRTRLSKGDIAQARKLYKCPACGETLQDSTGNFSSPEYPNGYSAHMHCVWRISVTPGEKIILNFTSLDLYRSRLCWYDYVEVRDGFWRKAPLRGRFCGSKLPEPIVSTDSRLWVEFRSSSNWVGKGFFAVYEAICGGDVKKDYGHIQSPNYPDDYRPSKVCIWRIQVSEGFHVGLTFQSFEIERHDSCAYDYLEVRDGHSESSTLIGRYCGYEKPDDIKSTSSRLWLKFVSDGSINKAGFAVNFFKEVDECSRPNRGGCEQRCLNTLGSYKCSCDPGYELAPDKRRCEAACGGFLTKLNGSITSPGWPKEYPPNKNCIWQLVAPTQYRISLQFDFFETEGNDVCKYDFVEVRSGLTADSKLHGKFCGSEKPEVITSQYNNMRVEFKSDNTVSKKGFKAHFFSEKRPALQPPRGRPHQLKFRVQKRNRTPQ
Protocol: Human Procollagen C-Proteinase (PCP, also known as Bone Morphogenetic Protein-1 or BMP-1) was cloned from a human fibroblast cDNA library (Stratagene, San Diego, CA). Cloning was performed by PCR based on the reported nucleotide sequence (Wozney, J.M., Rosen,V., Celeste, A.J., Mitsock, L.M., Whitters, M.J., Kriz, R.W., Hewick, R.M., and Wang, E.A. (1989) direct GenBank submission accession M22488, locus HUMBMP1) using Taq polymerase, the 5' primer […] […] […] (SEQ ID NO:1) (Oligo Therapeutics, Inc., Wilsonville, OR), and the 3' reverse strand primer […] TTGAGCTGGTG (SEQ ID NO:2) (Gibco) to yield the entire full-length nucleotide encoding the signal sequence, propeptide, catalytic domain, and all C-terminal domains to the natural translation termination site. The PCR product was purified by gel electrophoresis using the Wizard DNA Purification Kit (Promega, Madison, WI) and ligated directly into the mammalian expression vector pCR3.1 (Invitrogen, Carlsbad, CA) by the TA cloning method. Ligated product was used to transform E coli strain TOP10F' (Invitrogen, Carlsbad, CA) by a standard heat-shock method, and transformants were selected by restriction analysis of purified plasmid using the enzymes HindIII and BamHI. Transformants testing positive for the PCP insert were submitted for sequencing using the Perkin-Elmer / ABI system. Two clones were selected that, when combined, encoded the entire amino acid sequence identical to the one predicted by Wozney et al. The two clones were recombined by restriction using the enzymes BbrI, which cleaved at a naturally occurring internal site, and EcoRV, which cleaved at the junction of the insert and vector. The excised fragments were religated into EcoRV-treated pCR3.1. The resulting construct contained the entire coding sequence identical to that reported by Wozney et al. with the exception of two silent mutations in the signal sequence, G->A at both positions 39 and 45 counting from the translation initiation site (ATG). The completed plasmid construct was amplified in E. coli DH5a and purified using anion exchange chromatography (MaxiPrep columns from Qiagen (Valencia, CA) catalog #12162).
A column packed with Dyematrex Gel Green A (Millipore, Bedford, MA) was equilibrated against 50 mM HEPES, pH7.2, containing 6mM CaCl2 and 0.3M NaCl. After the HT1080 cell culture fluid was loaded, the column was washed with 10 column volumes of the equilibration buffer containing 1.0 M NaCl. PCP was eluted with 50 mM HEPES pH 7.2 containing 3 M NaCl, 2 M urea and 6 mM CaCl2. Eluate fractions were pooled and concentrated to 150-200 ml and dialyzed against 4.0 liters of 50 mM HEPES, 6 mM CaCl2, pH 7.2 overnight. The material was then centrifuged at 5,000 g for 15 minutes to remove precipitates. The PCP containing sample were stored at -20 °C until ready for further processing. The PCP containing sample was thawed and diluted with 50 mM HEPES pH 7.2 containing 6 mM CaCl2, if necessary to bring the NaCl concentration to 0.1-0.15 M. The pH was adjusted to 6.7 with 2 N HCl. The protein solution was filtered through a 0.45 µm filter to remove any precipitate. This preparation was then loaded onto a column packed with Q-Sepharose High Performance (Pharmacia, Piscataway, NJ) which had been equilibrated with 50mM HEPES pH 6.7 containing 6 mM CaCl2 and 0.15 M NaCl. The PCP was not retained in the column and was therefore in the flow through fractions. The PCP was concentrated to 1 mg/ml and used for screening.
Culture fluid from the drosophila cells was concentrated 8 fold and the pH adjusted to 7.1-7.2 if necessary. The culture fluid was centrifuged at 3000 g for 10 minutes and filtered through 0.45 µm filters. The culture fluid was then loaded onto columns packed with carboxy-sulfone packing material (J.T. Baker/Mallinckrodt, Phillipsburg, NJ) which had been equilibrated with 0.1 M NaCl, 50 mM HEPES, 6 mM CaCl2, pH 7.2. […]

[2] = biological target: T2, collagenase-1 (Homo sapiens, UniProt P03956); test: Measurement of collagenase activity (hydrolysis of fluorogenic peptide MCA-Pro-Leu-Gly-Leu-DPA-Ala-Arg-NH2); conditions: based on inhibitory data from Assay A of Ex. 21 and the Assay of Ex. 22
T2 construct: the collagenase-1 catalytic domain was released by treatment with 1mM of aminophenylmercuric acetate (APMA); ubiquitin (cleaved yes); made in house; host or cells: E. coli
T2 sequence (P03956 100-269 limits assumed): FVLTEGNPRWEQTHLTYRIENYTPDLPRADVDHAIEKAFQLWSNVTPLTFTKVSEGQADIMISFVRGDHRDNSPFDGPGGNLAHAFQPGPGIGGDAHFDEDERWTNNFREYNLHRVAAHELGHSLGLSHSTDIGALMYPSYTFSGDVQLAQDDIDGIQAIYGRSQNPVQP
Protocol: (§1) The catalytic domain of human collagenase-1 was expressed as a fusion protein with ubiquitin in E. Coli as described in Gehring, E.R. et al., J. Biol. Chem., 270, 22507, (1995). After purification of the fusion protein, the collagenase-1 catalytic domain was released by treatment with 1mM of aminophenylmercuric acetate (APMA) for 1 hour at 37 °C and then purified by zinc chelate chromatography. Human collagenase-2 and gelatinase B were isolated in active form from buffy coats as described in Mookhtiar, K.A. et al., Biochemistry, 29, 10620, (1990). The propeptide and catalytic domain portion of human collagenase-3 was expressed in E. Coli as an N-terminal fusion protein with ubiquitin. After purification, the catalytic domain was released by treatment with 1 mM APMA for 1 hour at 37 ° C, and then purified by zinc chelate chromatography. Rat collagenase-3 was purified in active form from the culture media of uterine smooth muscle cells as described in Roswit, W.T. et al., Arch. Biochem. Biophys., 225, 285-295 (1983).
(§2) The collagenase-1, collagenase-2 and collagenase-3 inhibitory activity of compounds of this invention in vitro was determined based on the hydrolysis of MCA-Pro-Leu-Gly-Leu-DPA-Ala-Arg-NH2 (SEQ ID NO:8) (Bachem, Inc.) at 37°C as described in Knight, C.G., et al., FEBS Lett., 296(3): 263-266 (1992). The collagenase enzyme was diluted with assay buffer (50 mM Tricine pH 7.5, 200 mM NaCl, 10 mM CaCl2, and 0.005% Brij-35) containing […] of above substrate dissolved in DMSO. Compounds of the invention dissolved in DMSO or only DMSO (control samples) were added such that the final DMSO concentration in all assays was 2.5%. The fluorescence changes were monitored with a Perkin-Elmer LS-50B flourimeter using an excitation wavelength of 328 nm and an emission wavelength of 393 nm.

[3] = biological target: T3, collagenase-2 (Homo sapiens, UniProt P22894); test: as above; conditions: based on inhibitory data from Assay A of Ex. 21 and the Assay of Ex. 22
T3 construct: Human collagenase-2 and gelatinase B were isolated in active form from buffy coats; from tissue; host or cells: human buffy coats (blood leukocytes)
T3 sequence (P22894 101-467): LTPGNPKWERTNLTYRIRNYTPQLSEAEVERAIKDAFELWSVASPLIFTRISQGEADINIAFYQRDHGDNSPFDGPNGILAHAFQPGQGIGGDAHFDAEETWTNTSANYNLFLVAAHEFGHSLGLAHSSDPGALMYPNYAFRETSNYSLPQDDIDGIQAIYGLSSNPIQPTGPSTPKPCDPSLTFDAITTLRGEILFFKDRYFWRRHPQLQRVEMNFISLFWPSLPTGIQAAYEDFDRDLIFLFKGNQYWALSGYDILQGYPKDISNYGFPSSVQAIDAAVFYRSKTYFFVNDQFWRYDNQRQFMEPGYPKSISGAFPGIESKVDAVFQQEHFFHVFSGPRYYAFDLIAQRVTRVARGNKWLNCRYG
Protocol: as §1, §2

[4] = biological target: T4, collagenase-3 (Homo sapiens, UniProt P45452); test: as above; conditions: based on inhibitory data from Assay A of Ex. 21 and the Assay of Ex. 22
T4 construct: After purification, the catalytic domain was released by treatment with 1 mM APMA for 1 hour; ubiquitin (N, cleaved yes); made in house; host or cells: E. coli
Protocol: as §1, §2

| SMILES | IC50 [1] [nM] | Selectivity for PCP/Col-1 [2] | Selectivity for PCP/Col-2 [3] | Selectivity for PCP/Col-3 [4] |
| --- | --- | --- | --- | --- |
| COc1cc(C)c(S(=O)(=O)N(Cc2ccc3c(c2)OCO3)[C@H](CO)C(=O)NO)c(C)c1C [Cmpd 5, N-hydroxy-2(R)-[(3,4-methylenedioxybenzyl)-(4-methoxy-2,3,6-trimethylbenzenesulfonyl)amino)-3-hydroxypropionamide] | 73 | 520.5 | 123.3 | – |
| COc1cc(C)c(S(=O)(=O)N(Cc2ccc3c(c2)OCO3)[C@@H](C(=O)NO)C(C)C)c(C)c1C [Cmpd 12, N-hydroxy-2(R)-[(3,4-methylenedioxybenzyl)-(4-methoxy-2,3,6-trimethylbenzenesulfonyl)amino]-3-methylbutyramide] | 69 | 89.9 | 23.2 | 14.5 |
| COc1cc(C)c(S(=O)(=O)N(Cc2ccc3[nH]ccc3c2)[C@H](COC(C)(C)C)C(=O)NO)c(C)c1C [Cmpd 15, N-Hydroxy-2(R)-[(4-methoxy-2,5,6-trimethylbenzenesulfonyl)-(1H-indol-5-ylmethyl)amino]-3-tert-butoxypropionamide] | 66 | 515.1 | 454.5 | – |
| COc1cc(C)c(S(=O)(=O)N(Cc2ccc3[nH]cnc3c2)[C@@H](C(=O)NO)C(C)C)c(C)c1C [Cmpd 82] | 40 | 1775.0 | 250.0 | 1950.0 |
| COc1cc(C)c(S(=O)(=O)N(Cc2ccc3[nH]cc(C(C)=O)c3c2)[C@@H](C(=O)NO)C(C)C)c(C)c1C [Cmpd 126, N-hydroxy-2(R)-[(1H-3-acetyl-indol-5-ylmethyl)-(4-methoxy-2,3,6-trimethylbenzenesulfonyl)amino]-3-methylbutyramide] | 26 | – | – | – |

The remaining lines, values ahead:

| IC50 [1] [nM] | Selectivity for PCP/Col-1 [2] | Selectivity for PCP/Col-2 [3] | Selectivity for PCP/Col-3 [4] | SMILES |
| --- | --- | --- | --- | --- |
| 68 | 367.6 | 55.9 | – | COc1cc(C)c(S(=O)(=O)N(Cc2ccc3c(c2)OCO3)[C@@H](C(=O)NO)C(C)C)c(C)c1 [Cmpd 40, N-hydroxy-2(R)-2-[(3,4-methylenedioxybenzyl)-(4-methoxy-2,6-dimethylbenzene-sulfanyl)amino]-3-methylbutyramide] |
| 30 | – | – | – | COc1cc(C)c(S(=O)(=O)N(Cc2ccc3c(c2)OCO3)[C@H](CNS(C)(=O)=O)C(=O)NO)c(C)c1 [Cmpd 128, N-hydroxy-2(R)-[(3,4-methylendioxybenzyl)-(2,6-dimethyl-4-methoxybenzenesulfonyl)amino]-3-(methanesulfonyl)amino-propionamide] |
| 110 | 400.0 | 136.4 | – | COc1cc(C)c(S(=O)(=O)N(Cc2ccc3[nH]ccc3c2)[C@@H](C(=O)NO)C(C)C)cc1C [Cmpd 145, N-hydroxy-2(R)-2-[(1H-indol-5-ylmethyl)-(4-methoxy-2,5-dimethylbenzenesulfonyl)-amino]-3-methylbutyramide] |
